According to patent US20030125389A1, “Beta-amino acid derivatives useful for the treatment of bacterial infections” (priority 2001, published 2003):

Legend:
[1] = tested on: Escherichia coli ATCC 25922; test: Mouse septicemia model; assay type: in vivo; settings: ATCC25922, ICR male mice, E. coli ATCC 25922 intraperitoneally, compound PO or IV at 1 and 5 hours after inoculation, mortality recorded for 7 days
Description: Escherichia coli ATCC 25922 was used to test the efficacy of compounds in a mouse septicemia model using six ICR male mice per group. Mice were inoculated intraperitoneally with 2×10^5 cfu/mouse in 0.5 ml of Brain-Heart Infusion broth supplemented with 5% mucin. The compounds were tested at 40, 20, 10, 5 and 2.5 mg/kg orally (PO) or at 20, 10, 5 and 2.5 mg/kg intravenously (IV) at 1 and 5 hours after bacterial inoculation. Controls included vehicle control (0.9% NaCl, 10 ml/kg) and an antibiotic control with ampicillin. Mortality was recorded for 7 days, and an ED50 was determined by non-linear regression.

[2] = tested on: a variety of standard laboratory microorganisms; settings: cited from earlier work
[3] = tested on: Gram negative and Gram positive bacteria; settings: against Gram negative and Gram positive bacteria; cited from earlier work

Row | Compound | ED50 [1] | further results
1 | CNC[C@H](F)C[C@@H](N)CC(=O)NN(C)CC(=O)O [Example 7, {N′-[(3R)-Amino-(5R)-fluoro-6-methylaminohexanoyl]-N-methylhydrazino}acetic acid] | < 40 mg/kg | –
2 | CN(CC(=O)O)NC(=O)C[C@H](N)C[C@@H](F)CN [Example 5, {N′-[(3R)-Amino-6-amino-(5R)-fluorohexanoyl]-N-methylhydrazino}acetic acid] | < 40 mg/kg | –
3 | CN(CC(=O)O)NC(=O)C[C@H](N)CCCN [Deoxynegamycin, D-3,6-diaminiohexanoic acid-2-(carboxymethyl)-2-methylhyrazide] | – | antimicrobial activity in vitro [2]: broad-spectrum antibacterial and antifungal activity
4 | CNC[C@H](O)C[C@@H](N)CC(=O)NN(C)CC(=O)O [Example 1] | < 40 mg/kg | –
5 | CN(CC(=O)O)NC(=O)C[C@H](N)C[C@@H](O)CN [Negamycin, [2-{(3R, 5R)-3,6-diamino-5-hydroxyhexanoyl}-1-methylhydrazino]acetic acid] | – | inhibitory activity [3]: strong inhibitory activity
